According to ChEMBL document CHEMBL1156829 (Proc Natl Acad Sci U S A, 2008):

Assays:
[1] = NOVARTIS: Cytotoxicity against human hepatocellular carcinoma cell line (Huh7); assay type: toxicity, cell-based, Huh-7; conditions: Huh7 cells (hepatocellular carcinoma cell line)
Plasmodium falciparum [2] = assay: NOVARTIS: Inhibition of Plasmodium falciparum W2 (drug-resistant) proliferation in erythrocyte-based infection assay; assay type: functional, organism-based; conditions: Plasmodium falciparum, W2; read-out: EC50
Plasmodium falciparum [3] = assay: NOVARTIS: Inhibition of Plasmodium falciparum 3D7 (drug-susceptible) proliferation in erythrocyte-based infection assay; assay type: functional, organism-based; conditions: Plasmodium falciparum, 3D7

Row | Structure (SMILES) | CC50 [1] [nM] | EC50 (Plasmodium falciparum [2]) [nM] | EC50 (Plasmodium falciparum [3]) [nM]
1 | CCOc1ccc(-c2nc(NC(=O)Cc3cccc(OC)c3)sc2C)cc1 | > 10000 | 417 | 273
2 | O=C(O)CCNc1ccccc1[N+](=O)[O-] | > 100000 | > 4310 | > 8540
3 | CN(C)c1ccc(-c2nc(-c3ccc(-c4[nH]c(-c5ccc(N(C)C)cc5)nc4-c4ccccc4)cc3)c(-c3ccccc3)[nH]2)cc1 | 68400 | 2910 | 7820
4 | Oc1cccc(C=Nc2ccccc2)c1O | > 10300 | 435 | 360
5 | c1ccc2cc3c(N4CCN(CCCN5CCN(c6ccnc7cc8ccccc8cc67)CC5)CC4)ccnc3cc2c1 | > 10000 | 417 | 79.4
6 | Brc1ccc(Nc2nc3ccccc3nc2Nc2ccc(Br)cc2)cc1 | 20600 | 854 | 809
7 | CCOC(=O)CSC1=Nc2ccccc2C2=NC(Cc3ccccc3)C(=O)N12 (stereo not given) | > 10000 | 407 | > 1250
8 | O=C1C(=O)N(Cc2cccc3ccccc23)c2ccc(Br)cc21 | > 100000 | 4230 | > 12500
9 | O=C(NCc1ccccc1)NC1CC2CCCC(C1)N2Cc1ccccc1 (stereo not given) | > 10000 | 423 | 879
10 | CC(=NNC(=O)c1ccc([N+](=O)[O-])cc1)c1cccc([N+](=O)[O-])c1 | > 10000 | > 406 | > 1410
11 | CCn1c(SCC(=O)Nc2ccc(OC)cc2)nc2ccsc2c1=O | > 11700 | 475 | > 1250
12 | Cc1ccc(C)c(NC2=C(c3ccc(C(F)(F)F)cc3)C(=O)c3ccccc32)c1 | > 100000 | 4220 | 1850
13 | CCCCN(C)CCCNC(=O)c1ccc(Cl)c(NC(=O)Nc2ccc(Cl)c(Cl)c2)c1 | 20300 | 822 | 233
14 | CCN1/C(=C/C(=C/c2sc3ccccc3[n+]2CC)NC)Sc2ccccc21 | > 10000 | > 422 | > 1250
15 | O=C(NC1CCN(Cc2ccccc2)CC1)[C@@H](c1ccccc1)N1Cc2ccccc2C1=O | > 100000 | 4210 | > 12500
16 | Oc1ccc(-c2cncc(NCc3ccc(Cl)cc3)c2)cc1 | > 10000 | 405 | 439
17 | FC(F)(F)c1cccc(Nc2nnnc3ccccc23)c1 | > 10000 | 433 | 756
18 | CC(=O)OCN1C(=O)N(COC(C)=O)C2C1N(COC(C)=O)C(=O)N2COC(C)=O (stereo not given) | > 100000 | 4220 | > 11600
19 | FC(F)(F)c1cccc(-c2nc3c(s2)CN(C2CCCC2)CC3)c1 | 73000 | 2950 | 5370
20 | Cc1ccc(N=C2S/C(=C\c3ccccc3)C(=O)N2c2ccc(C)cc2)cc1 | > 10000 | 404 | > 1740
21 | CC1(C)CN=C(NCc2ccccc2Cl)S1 | 34200 | 1480 | 7450
22 | CC(=O)N/C(=C\c1ccc(OC(F)F)cc1)C(=O)O | > 10000 | 432 | > 1170
23 | Oc1ccc(-c2ccnc3cc(Cl)ccc23)cc1CNCCCn1ccnc1 | > 10000 | 403 | 167
24 | O=C(/C=C\c1ccccc1)Nc1ccc2[nH]c(-c3ccc(NC(=O)/C=C/c4ccccc4)cc3)nc2c1 | > 10000 | 425 | 254

Row | Structure (SMILES) | CC50 [1] [nM] | EC50 (Plasmodium falciparum [2]) [nM] | EC50 (Plasmodium falciparum [3]) [nM]
25 | Cc1ccc(CN2CCN(Cc3cn(C(C)C)c4ccccc34)CC2CCO)o1 (stereo not given) | > 100000 | 4210 | > 12500
26 | COCCNC(=O)[C@@H]1C[C@@H](NCCC2=C(C)CCCC2(C)C)CN1C(C)C | > 100000 | 4300 | > 12500
27 | CN(CCCNc1ccnc2cc(Cl)ccc12)S(=O)(=O)c1ccc(Br)cc1 | 6880 | 295 | 186
28 | CC(C)(C)c1ccc(C(=O)Nc2ccc(NC(=O)c3ccc(-c4cccc([N+](=O)[O-])c4)o3)cc2)cc1 | > 10000 | > 429 | > 1460
29 | COc1ccc(CCNC(=O)CC(=O)NN=Cc2ccc(Br)cc2)cc1OC | > 10000 | > 429 | > 1250
30 | CN(Cc1ccccc1)CC(O)COc1ccc(CNCCCN2CCCC2)cc1 (stereo not given) | 59800 | 2560 | 2380
31 | CCOC(=O)c1cccc(NC(=O)CCn2nc(C)c3c(C)n(-c4ccccc4)nc3c2=O)c1 | > 100000 | 4270 | 3060
32 | O=Cc1c(OCc2ccc(Cl)cc2Cl)ccc2ccccc12 | > 10000 | 426 | 719
33 | Clc1ccc(-c2c[n+](Cc3ccccc3Cl)c3n2CCC3)cc1Cl | > 30900 | 1310 | 749
34 | CCC(C)NC(=O)c1c[nH]c2ccc(S(=O)(=O)N3CCc4ccccc43)cc2c1=O (stereo not given) | > 10000 | 424 | > 1250
35 | C=CCNC(=O)c1ccc2c(c1)N=CN(CCOc1ccccc1)C2 | > 10000 | 419 | 441
36 | OCCNc1nc(Nc2ccccc2O)nc2ccccc12 | 58700 | 2470 | 1860
37 | COc1cccc(C(=O)N(CCCC(C)Nc2cc(OC)cc3cccnc23)Cc2ccc(F)cc2)c1 (stereo not given) | 3730 | 154 | 666
38 | COc1nccnc1NS(=O)(=O)c1ccc(NC(=O)c2cc3ccccc3oc2=O)cc1 | > 10000 | > 428 | > 1250
39 | CCN(CC)c1cc(-c2ccccn2)nc(-c2ccccn2)n1 | > 10000 | 418 | 578
40 | FC(F)(F)c1cccc(-c2cncc(N3CCN(c4ccccn4)CC3)n2)c1 | 45700 | 1910 | 5770
41 | O=C(/C=C/Nc1ccccc1NS(=O)(=O)c1ccc([N+](=O)[O-])cc1)c1ccccc1 | > 10000 | 419 | > 1250
42 | CCn1cc(C(=O)N2CCC(C(=O)c3nccs3)CC2)c(C)n1 | > 10000 | > 418 | > 1250
43 | O=C(c1ccc2c(c1)OCO2)N1CCOC(c2ccc(Cl)cc2)C1 (stereo not given) | > 100000 | 4110 | 1630
44 | CCOc1ccc(C2C(=O)N(C3CCCCC3)CC(=O)N2Cc2ccc(F)cc2)cc1OC (stereo not given) | > 100000 | 4150 | 4560
45 | Cc1ccc(-c2cc(-c3ccccc3)c(C#N)c(SCC(O)C[S+]([O-])Cc3ccccc3)n2)cc1 (stereo not given) | 39900 | 1650 | 7170
46 | CCN(CC)CCCC(C)Nc1cc(/C=C/c2ccc([N+](=O)[O-])cc2)nc2cc(OC)ccc12 (stereo not given) | > 10000 | 410 | 479
47 | Cc1ccc(Nc2nc(NCc3ccco3)c3ccccc3n2)cc1 | 5270 | 216 | 126
48 | COc1cccc(-c2cc(N=C(NCc3ccco3)SC)n[nH]2)c1 | 70400 | 2870 | > 11300

Row | Structure (SMILES) | CC50 [1] [nM] | EC50 (Plasmodium falciparum [2]) [nM] | EC50 (Plasmodium falciparum [3]) [nM]
49 | Ic1ccc(NCc2cn3ccccc3n2)cc1 | > 100000 | 4070 | 6370
50 | O=c1cc(NC2CCN(CCCc3ccccc3)CC2)c2cc(Cl)ccc2o1 | 20500 | 863 | 408
51 | CCN(CC)CCCN(Cc1cc2cc3c(cc2[nH]c1=O)OCCO3)C(=S)Nc1cccc(Cl)c1 | 21200 | 890 | 1160
52 | CCCCCCCCOC(=O)NCCCCCCNC(=O)OCCCCCCCC | > 100000 | 4190 | > 12500
53 | Cc1ccc(O)c(Nc2c3c(c(C#N)c4nc5ccccc5n24)CCC3)c1 | > 10000 | 424 | 231
54 | O=C1c2cccc3c(C4=NN(c5ccccc5)C(c5ccc(Cl)cc5)C4)ccc(c23)C(=O)N1c1ccccc1 (stereo not given) | > 10000 | 407 | > 1250
55 | COc1ccc2nc(C)cc(Nc3ccc(Oc4ccc(Cl)c5ccccc45)c(Cl)c3)c2c1 | 19800 | 826 | 365
56 | CC(C)CC(=O)NCCCCNc1ccnc2cc(Cl)ccc12 | > 10000 | 430 | 620
57 | CC1(C)Oc2ccc3ccc(=O)oc3c2CC1=NNC(N)=S | > 100000 | 4190 | > 12500
58 | O=C(CCl)Nc1ccc2c(c1)OCO2 | 20300 | 831 | 1900
59 | N#Cc1sccc1NS(=O)(=O)c1ccc(Cl)cc1 | > 10000 | > 413 | > 1250
60 | CCOC(=O)c1sc(Nc2c(Cl)cc(S(N)(=O)=O)cc2Cl)nc1C | > 10000 | 411 | > 1250
61 | C=C(C)[C@@H]1CC=C(CN2C[C@H](NC(=O)c3ccc(OC)cc3OC)C[C@H]2C(=O)OC)CC1 | > 10000 | 409 | 815
62 | O=[N+]([O-])c1ccc(-c2csc(CO)n2)cc1 | > 100000 | 4270 | > 12500
63 | CC(CC(=O)Oc1ccccc1-c1nc2ccccn2c1NC(C)(C)CC(C)(C)C)CC(C)(C)C (stereo not given) | 796 | 34.2 | 242
64 | CCOc1c(Cl)cc(CNC(C)C(O)c2ccccc2)cc1OC (stereo not given) | > 10000 | 427 | 1650
65 | CCOc1ccc(/C=C(/C#N)c2nc3ccccc3[nH]2)cc1OC | > 10000 | 405 | 1500
66 | CN(CCCNc1ccnc2cc(Cl)ccc12)C(=O)c1cccc(F)c1 | > 11500 | 490 | 739
67 | O=C1C(Nc2ccccc2)=C(n2nnc3ccccc32)C(=O)c2ccccc21 | 6300 | 259 | 2020
68 | CC[n+]1c(/C=C/C=C2\N(C)c3ccccc3C2(C)C)n(CCCOC(C)=O)c2ccccc21 | > 10000 | 416 | 322
69 | Cc1ccc(-c2cn3c([n+]2-c2ccc(C)cc2)CCCCC3)cc1 | 10900 | 459 | 999
70 | O=C(c1ccccc1)N1CCc2nc(Cc3ccc(F)cc3Cl)sc2C1 | > 57400 | 2360 | 4400
